# Laboratory results reported in PubChem BioAssay AID1259407 (Chemical Carcinogenesis Research Information System (CCRIS), 2018).
# Activity calls are given as the source filed them. The rule behind the calls is not given here.
# Test system: CCRIS mutagenicity, Ames/micronucleus/aberration tests
# Experiment: CCRIS mutagenicity studies
# [1] = Test System: AMES SALMONELLA TYPHIMURIUM, Strain/Indicator: TA98, Metabolic Activation: NONE, Method: PREINCUBATION
# [2] = Test System: AMES SALMONELLA TYPHIMURIUM, Strain/Indicator: TA100, Metabolic Activation: NONE, Method: PREINCUBATION
# [3] = Test System: AMES SALMONELLA TYPHIMURIUM, Strain/Indicator: TA100, Metabolic Activation: RAT, LIVER, S-9, PCB, Method: PREINCUBATION
# [4] = Test System: AMES SALMONELLA TYPHIMURIUM, Strain/Indicator: TA98, Metabolic Activation: NONE, Method: STANDARD PLATE
# [5] = Test System: AMES SALMONELLA TYPHIMURIUM, Strain/Indicator: TA100, Metabolic Activation: NONE, Method: STANDARD PLATE
structure (smiles),measurement,setting,value
O=C1CCc2ccccc2O1,mutagenic call,"Test System: AMES SALMONELLA TYPHIMURIUM, Strain/Indicator: TA98, Metabolic Activation: HAMSTER, LIVER, S-9, AROCLOR 1254 (10%), Method: PREINCUBATION",inactive; negative
same,mutagenic call,"Test System: AMES SALMONELLA TYPHIMURIUM, Strain/Indicator: TA98, Metabolic Activation: HAMSTER, LIVER, S-9, AROCLOR 1254, Method: PREINCUBATION",inactive; negative
same,mutagenic call,[1],inactive; negative
same,mutagenic call,"Test System: AMES SALMONELLA TYPHIMURIUM, Strain/Indicator: TA98, Metabolic Activation: RAT, LIVER, S-9, AROCLOR 1254 (10%), Method: PREINCUBATION",inactive; negative
same,mutagenic call,"Test System: AMES SALMONELLA TYPHIMURIUM, Strain/Indicator: TA98, Metabolic Activation: RAT, LIVER, S-9, AROCLOR 1254, Method: PREINCUBATION",inactive; negative
same,mutagenic call,"Test System: AMES SALMONELLA TYPHIMURIUM, Strain/Indicator: TA100, Metabolic Activation: HAMSTER, LIVER, S-9, AROCLOR 1254 (10%), Method: PREINCUBATION",inactive; negative
same,mutagenic call,"Test System: AMES SALMONELLA TYPHIMURIUM, Strain/Indicator: TA100, Metabolic Activation: HAMSTER, LIVER, S-9, AROCLOR 1254, Method: PREINCUBATION",inactive; negative
same,mutagenic call,[2],inactive; negative
same,mutagenic call,"Test System: AMES SALMONELLA TYPHIMURIUM, Strain/Indicator: TA100, Metabolic Activation: RAT, LIVER, S-9, AROCLOR 1254 (10%), Method: PREINCUBATION",inactive; negative
same,mutagenic call,"Test System: AMES SALMONELLA TYPHIMURIUM, Strain/Indicator: TA100, Metabolic Activation: RAT, LIVER, S-9, AROCLOR 1254, Method: PREINCUBATION",inactive; negative
same,mutagenic call,"Test System: AMES SALMONELLA TYPHIMURIUM, Strain/Indicator: TA1535, Metabolic Activation: HAMSTER, LIVER, S-9, AROCLOR 1254 (10%), Method: PREINCUBATION",inactive; negative
same,mutagenic call,"Test System: AMES SALMONELLA TYPHIMURIUM, Strain/Indicator: TA1535, Metabolic Activation: HAMSTER, LIVER, S-9, AROCLOR 1254, Method: PREINCUBATION",inactive; negative
same,mutagenic call,"Test System: AMES SALMONELLA TYPHIMURIUM, Strain/Indicator: TA1535, Metabolic Activation: NONE, Method: PREINCUBATION",inactive; negative
same,mutagenic call,"Test System: AMES SALMONELLA TYPHIMURIUM, Strain/Indicator: TA1535, Metabolic Activation: RAT, LIVER, S-9, AROCLOR 1254 (10%), Method: PREINCUBATION",inactive; negative
same,mutagenic call,"Test System: AMES SALMONELLA TYPHIMURIUM, Strain/Indicator: TA1535, Metabolic Activation: RAT, LIVER, S-9, AROCLOR 1254, Method: PREINCUBATION",inactive; negative
same,mutagenic call,"Test System: AMES SALMONELLA TYPHIMURIUM, Strain/Indicator: TA1537, Metabolic Activation: HAMSTER, LIVER, S-9, AROCLOR 1254 (10%), Method: PREINCUBATION",inactive; negative
same,mutagenic call,"Test System: AMES SALMONELLA TYPHIMURIUM, Strain/Indicator: TA1537, Metabolic Activation: HAMSTER, LIVER, S-9, AROCLOR 1254, Method: PREINCUBATION",inactive; negative
same,mutagenic call,"Test System: AMES SALMONELLA TYPHIMURIUM, Strain/Indicator: TA1537, Metabolic Activation: NONE, Method: PREINCUBATION",inactive; negative
same,mutagenic call,"Test System: AMES SALMONELLA TYPHIMURIUM, Strain/Indicator: TA1537, Metabolic Activation: RAT, LIVER, S-9, AROCLOR 1254 (10%), Method: PREINCUBATION",inactive; negative
same,mutagenic call,"Test System: AMES SALMONELLA TYPHIMURIUM, Strain/Indicator: TA1537, Metabolic Activation: RAT, LIVER, S-9, AROCLOR 1254, Method: PREINCUBATION",inactive; negative
[O-][n+]1cc2cnccc2cn1,mutagenic call,[1],active; positive
same,mutagenic call,"Test System: AMES SALMONELLA TYPHIMURIUM, Strain/Indicator: TA98, Metabolic Activation: RAT, LIVER, S-9, PCB, Method: PREINCUBATION",active; positive
same,mutagenic call,[2],inactive; negative
same,mutagenic call,[3],inactive; negative
Cc1ccc(NC(=O)N(C)C)cc1Cl,mutagenic call,"Test System: AMES SALMONELLA TYPHIMURIUM, Strain/Indicator: TA98, Metabolic Activation: IMMATURE CARP LIVER S-9, 3-METHYLCHOLANTHRENE, Method: STANDARD PLATE",inactive; negative
same,mutagenic call,[4],inactive; negative
same,mutagenic call,"Test System: AMES SALMONELLA TYPHIMURIUM, Strain/Indicator: TA100, Metabolic Activation: IMMATURE CARP LIVER S-9, 3-METHYLCHOLANTHRENE, Method: STANDARD PLATE",inactive; negative
same,mutagenic call,[5],inactive; negative
[N-]=[N+]=NC[C@@H](CO)Cc1ccccc1,mutagenic call,[3],active; positive
O=C(O)COc1cc(Cl)c(Cl)cc1Cl,mutagenic call,"End Point: IN VITRO CHROMOSOMAL ABERRATIONS, Test System: CHINESE HAMSTER OVARY CELLS, Metabolic Activation: NONE",inactive; negative
same,mutagenic call,"End Point: IN VITRO CHROMOSOMAL ABERRATIONS, Test System: CHINESE HAMSTER OVARY CELLS, Metabolic Activation: RAT, LIVER, S-9, AROCLOR 1254",active; positive; precipitation occurred at all doses
same,mutagenic call,"Test System: AMES SALMONELLA TYPHIMURIUM, Strain/Indicator: TA97, Metabolic Activation: NONE, Method: STANDARD PLATE",inactive; negative
same,mutagenic call,"Test System: AMES SALMONELLA TYPHIMURIUM, Strain/Indicator: TA97, Metabolic Activation: RAT, LIVER, S-9, AROCLOR 1254, Method: STANDARD PLATE",inactive; negative
same,mutagenic call,"Test System: AMES SALMONELLA TYPHIMURIUM, Strain/Indicator: TA98, Metabolic Activation: NONE",inactive; negative
same,mutagenic call,[4],inactive; negative
same,mutagenic call,"Test System: AMES SALMONELLA TYPHIMURIUM, Strain/Indicator: TA98, Metabolic Activation: RAT, LIVER, S-9, AROCLOR 1254",inactive; negative
same,mutagenic call,"Test System: AMES SALMONELLA TYPHIMURIUM, Strain/Indicator: TA98, Metabolic Activation: RAT, LIVER, S-9, AROCLOR 1254, Method: STANDARD PLATE",inactive; negative
same,mutagenic call,"Test System: AMES SALMONELLA TYPHIMURIUM, Strain/Indicator: TA100, Metabolic Activation: NONE",inactive; negative
same,mutagenic call,[5],inactive; negative
same,mutagenic call,"Test System: AMES SALMONELLA TYPHIMURIUM, Strain/Indicator: TA100, Metabolic Activation: RAT, LIVER, S-9, AROCLOR 1254",inactive; negative
same,mutagenic call,"Test System: AMES SALMONELLA TYPHIMURIUM, Strain/Indicator: TA100, Metabolic Activation: RAT, LIVER, S-9, AROCLOR 1254, Method: STANDARD PLATE",inactive; negative
same,mutagenic call,"Test System: AMES SALMONELLA TYPHIMURIUM, Strain/Indicator: TA102, Metabolic Activation: NONE",inactive; negative
same,mutagenic call,"Test System: AMES SALMONELLA TYPHIMURIUM, Strain/Indicator: TA102, Metabolic Activation: NONE, Method: STANDARD PLATE",inactive; negative
same,mutagenic call,"Test System: AMES SALMONELLA TYPHIMURIUM, Strain/Indicator: TA102, Metabolic Activation: RAT, LIVER, S-9, AROCLOR 1254",inactive; negative
same,mutagenic call,"Test System: AMES SALMONELLA TYPHIMURIUM, Strain/Indicator: TA102, Metabolic Activation: RAT, LIVER, S-9, AROCLOR 1254, Method: STANDARD PLATE",inactive; negative
same,mutagenic call,"Test System: AMES SALMONELLA TYPHIMURIUM, Strain/Indicator: TA104, Metabolic Activation: NONE",inactive; negative
same,mutagenic call,"Test System: AMES SALMONELLA TYPHIMURIUM, Strain/Indicator: TA104, Metabolic Activation: RAT, LIVER, S-9, AROCLOR 1254",inactive; negative
